Laboratory results published in the Kinase Knowledgebase extract (Sharma et al. 2016).
pIC50: −log10 of the molar value.

Each compound was assayed against PIK3CA (human) (UniProt P42336) (assay: Assessment of PIK3CA Kinase Activity).
Sequence of PIK3CA (human) (P42336 whole entry, looked up): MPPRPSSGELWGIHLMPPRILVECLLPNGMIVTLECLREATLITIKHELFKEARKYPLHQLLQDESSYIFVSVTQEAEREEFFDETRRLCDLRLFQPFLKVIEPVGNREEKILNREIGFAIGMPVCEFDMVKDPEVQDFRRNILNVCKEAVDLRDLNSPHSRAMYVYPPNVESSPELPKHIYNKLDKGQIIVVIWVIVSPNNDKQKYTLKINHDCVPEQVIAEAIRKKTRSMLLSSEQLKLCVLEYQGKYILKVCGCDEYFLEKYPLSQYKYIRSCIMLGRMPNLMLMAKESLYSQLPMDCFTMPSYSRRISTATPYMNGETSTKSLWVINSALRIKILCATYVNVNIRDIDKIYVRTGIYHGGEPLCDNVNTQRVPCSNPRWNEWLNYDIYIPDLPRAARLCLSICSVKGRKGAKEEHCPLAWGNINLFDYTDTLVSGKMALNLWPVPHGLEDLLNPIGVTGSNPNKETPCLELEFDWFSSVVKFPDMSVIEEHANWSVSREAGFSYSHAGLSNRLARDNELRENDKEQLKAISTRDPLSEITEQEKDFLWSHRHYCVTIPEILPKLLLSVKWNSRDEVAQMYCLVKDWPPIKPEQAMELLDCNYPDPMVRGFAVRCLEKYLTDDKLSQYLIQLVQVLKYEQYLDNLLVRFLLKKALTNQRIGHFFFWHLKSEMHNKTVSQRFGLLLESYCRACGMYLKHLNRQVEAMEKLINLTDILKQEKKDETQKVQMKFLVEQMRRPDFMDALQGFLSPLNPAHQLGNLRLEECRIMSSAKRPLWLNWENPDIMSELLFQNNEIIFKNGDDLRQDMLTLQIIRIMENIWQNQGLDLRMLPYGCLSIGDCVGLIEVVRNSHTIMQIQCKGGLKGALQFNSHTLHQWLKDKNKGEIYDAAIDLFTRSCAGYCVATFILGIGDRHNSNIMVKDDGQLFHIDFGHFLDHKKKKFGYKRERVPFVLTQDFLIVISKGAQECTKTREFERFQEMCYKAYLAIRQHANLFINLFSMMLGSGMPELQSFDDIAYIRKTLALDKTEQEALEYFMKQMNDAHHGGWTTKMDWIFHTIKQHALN
For `N[C@H]1CCN(C(=O)c2ccc(NC(=O)Nc3ccc(-c4nc(N5CCOCC5)c5ccc(-c6cncnc6)cc5n4)cc3F)cc2)C1`, the pIC50 was > 7.30. `Cc1ncccc1-c1ccc2c(N3CCOCC3)nc(-c3ccc(NC(=O)Nc4ccc(C(=O)N(C)C)cc4)cc3F)nc2c1` was tested, and the pIC50 was > 7.30. In the case of `CN(C)C(=O)c1ccc(NC(=O)Nc2ccc(-c3nc(N4CCOCC4)c4ccc(-c5ccc(C#N)o5)cc4n3)c(F)c2)cc1`, the pIC50 was > 7.30. In the case of `CN(C)C(=O)c1ccc(NC(=O)Nc2ccc(-c3nc(N4CCOCC4)c4ccc(-c5ccc(C(=O)O)o5)cc4n3)cc2)cc1`, the pIC50 was > 7.30. `CN1CCN(C(=O)c2ccc(NC(=O)Nc3ccc(-c4nc(N5CCOCC5)c5ccc(-c6ccco6)cc5n4)cc3)cc2)CC1` was tested, and the pIC50 was > 7.30. With `CN(C)C(=O)c1ccc(NC(=O)Nc2ccc(-c3nc(N4CCOCC4)c4ncc(-c5cnn(C)c5)cc4n3)cn2)cc1` the pIC50 was > 7.30. With `CN1CCN(C(=O)c2ccc(NC(=O)Nc3ccc(-c4nc(N5CCOCC5)c5ccc(-c6ccncc6)cc5n4)cc3)cc2)CC1` the pIC50 was > 7.30. For `N[C@@H]1CCN(C(=O)c2ccc(NC(=O)Nc3ccc(-c4nc(N5CCOCC5)c5ccc(-c6cncnc6)cc5n4)cc3)cc2)C1`, the pIC50 was > 7.30. In the case of `CN(C)C(=O)c1ccc(NC(=O)Nc2ccc(-c3nc(N4CCOCC4)c4ncc(-c5cccnc5F)cc4n3)cc2F)cc1`, the pIC50 was > 7.30. `CN(C)C(=O)c1ccc(NC(=O)Nc2ccc(-c3nc(N4CCOCC4)c4ccc(-c5cncnc5)cc4n3)c(F)c2)cc1` was tested, and the pIC50 was > 7.30. A pIC50 of 6.70 to 7.30 was found for `CN(C)C(=O)c1ccc(NC(=O)Nc2ccc(-c3nc(N4CCOCC4)c4cc(F)c(-c5cncnc5)cc4n3)c(F)c2)cc1` in this work. With `CN(C)C(=O)c1ccc(NC(=O)Nc2ccc(-c3nc(N4CCOCC4)c4ccc(-c5ccccn5)cc4n3)cc2)cc1` the pIC50 was > 7.30. A pIC50 of 6.70 to 7.30 was found for `CN1CCN(C(=O)c2ccc(NC(=O)Nc3ccc(-c4nc(N5CCOCC5)c5ccc(-c6cnn(C)c6)cc5n4)cc3)cc2)CC1` in this work. `CN(C)C(=O)c1ccc(NC(=O)Nc2ccc(-c3nc(N4CCOCC4)c4ccc(-c5cccnc5)cc4n3)cc2)cc1` was tested, and the pIC50 was > 7.30. `CN(C)C(=O)c1ccc(NC(=O)Nc2ccc(-c3nc(N4CCOCC4)c4ccc(-c5ccc(CO)o5)cc4n3)cc2)cc1` was tested, and the pIC50 was > 7.30. With `CN(C)C(=O)c1ccc(NC(=O)Nc2ccc(-c3nc(N4CCOCC4)c4ccc(-c5cccc(S(C)(=O)=O)c5)cc4n3)cc2F)cn1` the pIC50 was > 7.30. A pIC50 of 6.70 to 7.30 was found for `CN(C)C(=O)c1ccc(NC(=O)Nc2ccc(-c3nc(N4CCOCC4)c4ccc(-c5cncnc5)cc4n3)cc2F)cc1` in this work. A pIC50 of 6.70 to 7.30 was found for `CN(C)C(=O)c1ccc(NC(=O)Nc2ccc(-c3nc(N4CCOCC4)c4ccc(-c5ccccn5)cc4n3)cc2F)cc1` in this work. In the case of `CN(C)C(=O)c1ccc(NC(=O)Nc2ccc(-c3nc(N4CCOCC4)c4ncc(-c5cccc(S(C)(=O)=O)c5)cc4n3)cc2)cc1`, the pIC50 was > 7.30. With `CN(C)[C@@H]1CCN(C(=O)c2ccc(NC(=O)Nc3ccc(-c4nc(N5CCOCC5)c5ccc(-c6cncnc6)cc5n4)cc3)cc2)C1` the pIC50 was > 7.30. `CN(C)C(=O)c1ccc(NC(=O)Nc2ccc(-c3nc(N4CCOCC4)c4ccc(-c5ccncc5F)cc4n3)cc2)cc1` was tested, and the pIC50 was > 7.30. A pIC50 of 6.70 to 7.30 was found for `Cc1ccncc1-c1cnc2c(N3CCOCC3)nc(-c3ccc(NC(=O)Nc4ccc(C(=O)N(C)C)cc4)c(F)c3)nc2c1` in this work. In the case of `CN(C)C(=O)c1ccc(NC(=O)Nc2ccc(-c3nc(N4CCOCC4)c4ncc(-c5cnn(C)c5)cc4n3)c(F)c2)cc1`, the pIC50 was > 7.30. In the case of `CN(C)C(=O)c1ccc(NC(=O)Nc2ccc(-c3nc(N4CCOCC4)c4ncc(-c5cnn(C)c5)cc4n3)cc2)cc1F`, the pIC50 was > 7.30. For `CN(C)C(=O)c1ccc(NC(=O)Nc2ccc(-c3nc(N4CCOCC4)c4ncc(-c5cnn(C)c5)cc4n3)cc2)cc1`, the pIC50 was > 7.30. A pIC50 of 6.70 to 7.30 was found for `CNC(=O)c1ccc(NC(=O)Nc2ccc(-c3nc(N4CCOCC4)c4ccc(-c5ccc(C)o5)cc4n3)cc2)cc1` in this work. For `CN(C)C(=O)c1ccc(NC(=O)Nc2ccc(-c3nc(N4CCOCC4)c4ccc(-c5cnc(N)nc5)cc4n3)cc2)cc1`, the pIC50 was > 7.30. A pIC50 of 6.70 to 7.30 was found for `CN(C)CCn1cc(-c2ccc3c(N4CCOCC4)nc(-c4ccc(NC(=O)Nc5ccc(C(=O)N(C)C)cc5)cc4)nc3c2)cn1` in this work. `CC(=O)Nc1ccc(NC(=O)Nc2ccc(-c3nc(N4CCOCC4)c4ncc(-c5cccnc5F)cc4n3)cc2)cc1` was tested, and the pIC50 was > 7.30. For `COc1ncccc1-c1ccc2c(N3CCOCC3)nc(-c3ccc(NC(=O)Nc4ccc(C(=O)N(C)C)cc4)cc3)nc2c1`, the pIC50 was > 7.30. For `CN(C)C(=O)c1ccc(NC(=O)Nc2ccc(-c3nc(N4CCOCC4)c4ccc(-c5cnc(N(C)C)nc5)cc4n3)c(F)c2)cc1`, the pIC50 was > 7.30. A pIC50 of 6.70 to 7.30 was found for `CN(C)C(=O)c1ccc(NC(=O)Nc2ccc(-c3nc(N4CCOCC4)c4ccc(-c5cnn(C)c5)cc4n3)c(F)c2)cc1` in this work. `CN(C)C(=O)c1ccc(NC(=O)Nc2ccc(-c3nc(N4CCOCC4)c4ncc(-c5cncnc5)cc4n3)cc2)c(F)c1` was tested, and the pIC50 was > 7.30. `CN(C)C(=O)c1ccc(NC(=O)Nc2ccc(-c3nc(N4CCOCC4)c4ncc(-c5cnn(C)c5)cc4n3)c(F)c2F)cc1` was tested, and the pIC50 was > 7.30. For `CN(C)[C@@H]1CCN(C(=O)c2ccc(NC(=O)Nc3ccc(-c4nc(N5CCOCC5)c5cc(F)c(-c6cccnc6)cc5n4)cc3)cc2)C1`, the pIC50 was > 7.30. `CN(C)C(=O)c1ccc(NC(=O)Nc2ccc(-c3nc(N4CCOCC4)c4ncc(-c5cccnc5F)cc4n3)c(F)c2)cc1` was tested, and the pIC50 was > 7.30. In the case of `CN1CCN(C(=O)c2ccc(NC(=O)Nc3ccc(-c4nc(N5CCOCC5)c5ncc(-c6cnn(C)c6)cc5n4)cc3)cc2)CC1`, the pIC50 was > 7.30. `CN1CCN(C(=O)c2ccc(-c3ccc4c(N5CCOCC5)nc(-c5ccc(NC(=O)Nc6ccc(C(=O)N(C)C)cc6)cc5)nc4c3)o2)CC1` was tested, and the pIC50 was > 7.30. `CN(C)[C@H]1CCN(C(=O)c2ccc(NC(=O)Nc3ccc(-c4nc(N5CCOCC5)c5cc(F)c(-c6cccnc6)cc5n4)cc3)cc2)C1` was tested, and the pIC50 was > 7.30. With `CN(C)C(=O)c1ccc(NC(=O)Nc2ccc(-c3nc(N4CCOCC4)c4ncc(-c5cccnc5)cc4n3)cc2)cc1` the pIC50 was > 7.30. A pIC50 of 6.70 to 7.30 was found for `CN(C)C(=O)c1ccc(NC(=O)Nc2ccc(-c3nc(N4CCOCC4)c4ccc(-c5ccco5)cc4n3)cc2F)cc1` in this work. `O=C(Nc1ccc(C(=O)N2CCC(O)C2)cc1)Nc1ccc(-c2nc(N3CCOCC3)c3ccc(-c4ccco4)cc3n2)cc1` (configuration not stated) was tested, and the pIC50 was > 7.30. A pIC50 of 6.70 to 7.30 was found for `Cc1ccc(-c2ccc3c(N4CCOCC4)nc(-c4ccc(NC(=O)Nc5ccc(C(=O)N(C)C)cc5)cc4F)nc3c2)o1` in this work. `CN(C)C(=O)c1ccc(NC(=O)Nc2ccc(-c3nc(N4CCOCC4)c4ncc(-c5ccc(CO)o5)cc4n3)cc2F)cc1` was tested, and the pIC50 was > 7.30. For `CN(C)C(=O)c1ccc(NC(=O)Nc2ccc(-c3nc(N4CCOCC4)c4ccc(-c5cncc(F)c5)cc4n3)cc2)cc1`, the pIC50 was > 7.30. A pIC50 of 6.70 to 7.30 was found for `CN(C)C(=O)c1ccc(NC(=O)Nc2ccc(-c3nc(N4CCOCC4)c4cc(F)c(-c5ccco5)cc4n3)cc2)cc1` in this work. `CN(C)C(=O)c1ccc(NC(=O)Nc2ccc(-c3nc(N4CCOCC4)c4ccc(-c5cccc(O)c5)cc4n3)cc2)cc1` was tested, and the pIC50 was > 7.30. For `Cc1ccncc1-c1ccc2c(N3CCOCC3)nc(-c3ccc(NC(=O)Nc4ccc(C(=O)N5CCC(N(C)C)CC5)cc4)cc3)nc2c1`, the pIC50 was > 7.30. For `CN(C)C(=O)c1ccc(NC(=O)Nc2ccc(-c3nc(N4CCOCC4)c4ccc(-c5ccc(CO)o5)cc4n3)cc2)cc1F`, the pIC50 was > 7.30. In the case of `CN(C)[C@@H]1CCN(C(=O)c2ccc(NC(=O)Nc3ccc(-c4nc(N5CCOCC5)c5ncc(-c6cnn(C)c6)cc5n4)cc3)cc2)C1`, the pIC50 was > 7.30. In the case of `CN1CCN(C(=O)c2ccc(NC(=O)Nc3ccc(-c4nc(N5CCOCC5)c5ccc(-c6cccnc6)cc5n4)cc3)cc2)CC1`, the pIC50 was > 7.30. A pIC50 of 6.70 to 7.30 was found for `CN(C)C(=O)c1ccc(NC(=O)Nc2ccc(-c3nc(N4CCOCC4)c4ccc(C(C)(C)O)cc4n3)cc2F)cc1` in this work.
